Results as given in US20250134866A1, “COMMENSAL SIGNALLING COMPOUNDS FOR TREATING OR PREVENTING MICROBIOME DYSFUNCTION IN THE SKIN OR MOUTH” (priority 2022, published 2025).

Tests used:
[1] = system: P. aeruginosa ATCC 27853; assay: Growth of P. aeruginosa culture in presence of EGT (optical density, 24 hours); type: cell-based; details: 0.001%, 0.05% or 0.1% (w/v) added upon inoculation, MH media, 37 C, OD monitored 24 hours
Description: (§1) The growth of two bacterial strains, one commensal containing EGT-synthetic genes (P. aeruginosa ATCC 27853) and one pathogen lacking such genes (S. Aureus ATCC 6538) were compared in the presence and absence of EGT. Each strain was adjusted to an OD600 of 0.2 in MH culture media, inoculated into 96-well plates and incubated at 37 C. The growth of the cultures were monitored for optical density for 24 hours. The S. aureus and P. aeruginosa cultures reached stationary phase after 15 and 2 hours, respectively. Addition of L-ergothioneine (99+% purity) at 0.001%, 0.05% or 0.1% (w/v) upon inoculation had no effect on the growth rate of either culture.

[2] = system: IL-8; assay: Release of inflammatory cytokine IL-8 by human keratinocytes after treatment with S. aureus; type: cell-based; details: 24 hours pre-treatment, keratinocytes infected with S. aureus at multiplicity of infection of 10, 24 hours
Description: The present example examines the release of the inflammatory cytokine IL-8 by human keratinocytes after treatment with S. aureus. Although S. aureus is associated with atopic dermatitis, IL-8 […] as inflammatory cytokine in this disease (Li and Yosipovitch, 2020).
Infection of a keratinocyte culture at a multiplicity of infection of 10 increased the amount of IL-8 from low levels in uninfected cultures to an increase of 6,044% in 24 hours in infected cultures. Pre-treatment of the keratinocyte cultures with EGT for 24 hours reduced the release of IL-8 by 61% for 0.005% EGT, 75% for 0.01% EGT, and 82% for 0.05% EGT.

[3] = system: S. Aureus ATCC 6538; assay: Growth of S. aureus culture in presence of EGT (optical density, 24 hours); type: cell-based; details: 0.001%, 0.05% or 0.1% (w/v) added upon inoculation, MH media, 37 C, OD monitored 24 hours
Description: as §1

[4] = Skin redness of atopic dermatitis lesions, topical formula, dermospectrophotometer; type: in vivo, human; details: placebo 9%
Description: The present example tests the effect of EGT on skin inflammation in subjects with atopic dermatitis lesions.
Three topical formulas were prepared using a commercial formulation of EGT called MC-2, which is a granulated preparation of EGT mixed into mannitol. One formulation was a placebo, with only mannitol added. The second was a low dose formula containing EGT in the form of MC-2 added to a final concentration of 0.005% EGT (w/w). The third was a high dose formulation containing EGT in the form of MC-2 added to a final concentration of 0.05% EGT (w/w).
Subjects with patches of atopic dermatitis were recruited to the study and 16 were assigned to each of three arms: placebo, low dose EGT and high dose EGT. The subjects were 9 males and 39 females, representing each Fitzpatrick Skin Type (I-VI) in age range from 21 to 73 years old. The redness of the skin lesion was measured using a dermospectrophotometer and compared to adjacent uninvolved skin to determine a redness measure. The subjects used the test formula on the skin lesion twice a day for 4 weeks. The lesions were again measured with a dermospectrophotometer.

C[N+](C)(C)[C@@H](Cc1c[nH]c(=S)[nH]1)C(=O)[O-] [EGT]
effect on the growth rate of culture [1]: no effect
reduction of release of IL-8 ([2]; 0.005% EGT): 61%
reduction of release of IL-8 ([2]; 0.01% EGT): 75%
reduction of release of IL-8 ([2]; 0.05% EGT): 82%
effect on the growth rate of culture [3]: no effect
redness reduction of skin lesion ([4]; high dose topical formula, 0.05% EGT (w/w) as MC-2, twice a day for 4 weeks): 50%
redness reduction of skin lesion ([4]; low dose topical formula, 0.005% EGT (w/w) as MC-2, twice a day for 4 weeks): 66%
